In patent publication US5314913A, “4- or 5-(substituted sulfonyl)methyl-3(2H)-furanones” (American Home Products Corporation, priority 1992, dated 1994):

system: cholesterol absorption; experiment: Cholesterol absorption in normal rats (oral [14C] cholesterol, serum radioactivity); type: in vivo; details: 100 mg/kg, serum radioactivity at 6 hr
Experimental: Cholesterol absorption was measured in normal rats following simultaneous oral doses of the test compounds and radioactive cholesterol according to the method of Cayen and Dvornik except that [^14 C] cholesterol in propylene glycol and olive oil (vehicle for test compound) were used. Serum radioactivity was measured at 6 hr [Cayen, M. N. and Dvornik, D., J. Lipid Res., 20, 162 (1979)].

`CC1(C)OC=C(CS(=O)(=O)c2ccccc2)C1=O` [Example 1, 2,2-Dimethyl-4-(phenylsulfonyl)methyl-3(2H)-furanone] was tested, and the “decrease in cholesterol absorption” value was 79%.

same assay, conditions: 250 mg/kg, serum radioactivity at 6 hr

In order of falling “decrease in cholesterol absorption” value:
1. CC1(C)OC(CS(=O)(=O)c2ccccc2)=CC1=O [Example 7, 2,2-Dimethyl-5-(phenylsulfonyl)methyl-3(2H)-furanone]  58%
2. CC1(c2ccccc2)OC(CS(=O)(=O)c2ccccc2)=CC1=O (stereo not drawn) [Example 10, 2-Methyl-2-phenyl-5-(phenylsulfonyl)methyl-3(2H)-furanone]  35%

system: blood glucose levels in diabetic (db/db) mice; experiment: Blood glucose lowering in diabetic db/db mice; type: in vivo, db/db (C57BL/KsJ) mouse; details: 100 (mg/kg), p.o. by gavage, 4 doses, difference between mean percent change of vehicle and drug treated group
Experimental: The animals are obese, glucose intolerant and have fasting hyperglycemia which is sometimes accompanied by a paradoxical hyperinsulinemia.
On the morning of Day 1, 12-15 mice [male db/db (C57BLKsJ), Jackson Laboratories, 2 to 7 months of age and body weight 35 to 60 g] were fasted for 4 hours, weighed and a baseline blood sample was collected from the tail-tip of each mouse without anesthesia, placed directly into a fluoride-containing tube, mixed and maintained on ice. Food was then returned to the mice. The plasma was separated and levels of glucose in plasma determined by the Abbott VP Analyzer. Because of the variable plasma glucose levels of the db/db mice, the mice were randomly assigned into 3-5 groups (4-5 mice per group) of equivalent mean plasma glucose levels:
On the afternoon of Days 1, 2 and 3 the vehicle, control or test drugs were administered (p.o.) to the ad libitum fed mice. The positive control, ciglitazone [(±)-5-[4-[(1-methylcyclohexyl]benzyl]-thiazolidine-2,4-dione] see Fujita et al. Diabetes, 32, 804 (1983), was given by gavage at a dose of 100 mg/kg/day. The test compounds were given by gavage at a dose of 100 mg/kg/day. The fourth and final dose was administered on the morning of day 4, after the mice had been fasted for 18 h. A blood sample was collected immediately preceeding the last dose, followed by samples collected at 90 and 120 min after drug administration. Insulin is immediately administered to each mouse after the 120 min sample. Serial blood samples were collected at 45 and 120 min after administration. The plasma was separated and the levels of glucose in plasma determined by the Abbot VP analyzer.
Analysis of variance followed by Dunnett's multiple comparison (one-sided) was used to estimate the degree of statistical significance of the difference between the vehicle control group and the individual drug-treated groups. A drug was considered active, at the specific dose administered, if the difference of the plasma glucose level has a p<0.10.
The actual difference between the mean percent change of blood glucose levels of the vehicle and the drug treated group is reported in Table 1.

“N-[[(4,5-Dihydro-5,5-dimethyl-4-oxo-3-furanyl)methyl]sulfonyl]phenylacetamide [Example 5]” was tested, and the “Blood Glucose Levels % Change from Vehicle” value was -23%.

same assay, conditions: Mus musculus, po, p.o. by gavage, 4 doses, difference between mean percent change of vehicle and drug treated group, read-out: Blood Glucose Levels % Change from Vehicle

Compared with `CC1(C)OC(C2(S(=O)(=O)c3ccccc3)CCCC2)=CC1=O` [Example 9, 2,2-Dimethyl-5-[1-(phenylsulfonyl)-1-cyclopentyl]-3(2H)-furanone], `CC1(C)OC(CS(=O)(=O)c2ccccc2)=CC1=O` [Example 7, 2,2-Dimethyl-5-(phenylsulfonyl)methyl-3(2H)-furanone] is lower in change in vivo at 100 mg/kg: -25% for the first, -38% for the second.

Going from `CC1(C)OC(C(C)(C)S(=O)(=O)c2ccccc2)=CC1=O` [Example 8, 2,2-Dimethyl-5-[1-methyl-1-(phenylsulfonyl)ethyl]-3(2H)-furanone] to `CC1(C)OC=C(CS(=O)(=O)c2ccccc2)C1=O` [Example 1, 2,2-Dimethyl-4-(phenylsulfonyl)methyl-3(2H)-furanone], the change in vivo at 100 mg/kg rises from -42% to -30%.

First: CC1(C)OC=C(CS(=O)(=O)c2ccc([N+](=O)[O-])cc2)C1=O [Example 4, 2,2-Dimethyl-4-[(4-nitrophenyl)sulfonyl]methyl-3(2H)-furanone]
Second: COc1ccccc1S(=O)(=O)CC1=COC(C)(C)C1=O [Example 3, 4-[(2-Methoxyphenyl)sulfonyl]methyl-2,2-dimethyl-3(2H)-furanone]
The change in vivo at 100 mg/kg of the first is lower: -30% for the first, -21% for the second.

`CC1(COc2ccc(CC3SC(=O)NC3=O)cc2)CCCCC1` (racemic) [Ciglitazaone, (±)-5-[4-[(1-methylcyclohexyl]benzyl]-thiazolidine-2,4-dione, reference compound] and `O=C1C(CS(=O)(=O)c2ccccc2)=COC12CCCCC2` [Example 6] cannot be ordered by change in vivo at 100 mg/kg: -50 to -24% for the first, -25% for the second.

Compared with `CC1(c2ccccc2)OC(CS(=O)(=O)c2ccccc2)=CC1=O` (stereo not drawn) [Example 10, 2-Methyl-2-phenyl-5-(phenylsulfonyl)methyl-3(2H)-furanone], `CC1(C)OC=C(CS(=O)(=O)c2cccc3ccccc23)C1=O` [Example 2, 2,2-Dimethyl-4-[(1-naphthalenyl)sulfonyl]methyl-3(2H)-furanone] is lower in change in vivo at 100 mg/kg: -19% for the first, -21% for the second.

system: gastric mucosal lesions produced by ethanol; experiment: Ethanol induced cytotoxicity in rats (gastric mucosal lesions); type: in vivo, Male Sprague-Dawley rats; details: Rattus norvegicus; 10 mg/kg, oral, 1 hour prior to ethanol; read-out: % Inhibition (of lesion formation)
Experimental: The purpose of this assay is to evaluate the effectiveness of the compounds of the present invention in preventing the formation of gastric mucosal lesions produced by ethanol. The assay is based on A. Robert, et al: Gastroenterology, 77: 433-443, 1979.
Male Sprague-Dawley rats weighing between 120-150 grams were fasted for 24 hours prior to the experiment (water ad libitum). At least two hours before dosing, the animals were placed in individual cages with wire grid bottoms and denied access to water.
Ethanol was administered orally at 1 mL per animal. The compounds of the present invention were dissolved in water or suspended in water with 0.5% carboxymethylcullulose and administered orally at a dose based on an appropriate standard giving ED50 to ED75 response of cytoprotective activity.
The rats were randomly divided into groups of equal number, ordinarily 10 to a group. The rats were weighed and the individual weights were recorded. Exactly 1 hour prior to the administration of ethanol, the screening group was treated with the compounds of the present invention, and the control group with the vehicle. One hour after administering the ethanol the animals were sacrificed by cervical dislocation. The stomachs were removed, cut along the greater curvature and cleansed of all debris with tap water. The stomachs were set aside and kept moist with saline until the lesions were scored.
Macroscopic lesions on the gastric mucosa were numerically graded. The final grade assigned a stomach was the sum of all the grades.
Streaks longer than 6 mm are graded in multiples of 2 mm.
The degree of cytotoxicity occurring in each group is represented as the mean± S.E.M.
The mean of each treatment group was compared to the control group and expressed as the % inhibition of lesion formation.

In order of rising inhibition in vivo at 10 mg/kg:
1. CC1(c2ccc(Cl)cc2)OC=C(CS(=O)(=O)C(C)(C)C)C1=O (stereo not drawn) [Example 19, 4-[(1,1-Dimethylethyl)sulfonyl]methyl-2-(4-chlorophenyl)-2-methyl-3(2H)-furanone]  45%
2. CC1(c2ccc(F)cc2)OC=C(CS(=O)(=O)C(C)(C)C)C1=O (stereo not drawn) [Example 18, 4-[(1,1-Dimethylethyl)sulfonyl]methyl-2-(4-fluorophenyl)-2-methyl-3(2H)-furanone]  80%

same assay, conditions: Rattus norvegicus; 25 mg/kg, oral, 1 hour prior to ethanol; read-out: % Inhibition (of lesion formation)

In order of falling inhibition in vivo at 25 mg/kg:
1. CC1(C)OC=C(CS(=O)(=O)C(C)(C)C)C1=O [Example 17, 4-[(1,1-Dimethylethyl)sulfonyl]methyl-2,2-dimethyl-3(2H)-furanone]  87%
2. CC1(c2ccccc2)OC=C(CS(=O)(=O)C(C)(C)C)C1=O (stereo not drawn) [Example 20, 4-[(1,1-Dimethylethyl)sulfonyl]methyl-2-methyl-2-phenyl-3(2H)-furanone]  76%
3. CC1(C)OC(CS(C)(=O)=O)=CC1=O [Example 13, 2,2-Dimethyl-5-(methylsulfonyl)methyl-3(2H)-furanone]  54%
4. CC1(C)OC(CS(=O)(=O)c2ccc(Cl)cc2)=CC1=O [Example 11, 5-[(4-Chlorophenyl)sulfonyl]methyl-2,2-dimethyl-3(2H)-furanone]  44%
5. CC1(C)OC(CS(=O)(=O)c2ccc(C(C)(C)C)cc2)=CC1=O [Example 14, 2,2-Dimethyl-5-[[4-(1,1-dimethylethyl)phenyl]sulfonyl]methyl-3(2H)-furanone]  43%
6. CC1(C)OC=C(CS(=O)(=O)c2ccc(F)cc2)C1=O [Example 15, 4-[(4-Fluorophenyl)sulfonyl]methyl-2,2-dimethyl-3(2H)-furanone]  42%
7. CC1(C)OC=C(CS(=O)(=O)c2ccc(C(C)(C)C)cc2)C1=O [Example 16, 2,2-Dimethyl-4-[[4-(1,1-dimethylethyl)phenyl]sulfonyl]methyl-3(2H)-furanone]  30%
8. CC1(C)OC(CS(=O)(=O)c2ccc(F)cc2)=CC1=O [Example 12, 5-[(4-Fluorophenyl)sulfonyl]methyl-2,2-dimethyl-3(2H)-furanone]  6%
